According to patent publication US12209081B2 (Katholieke Universiteit Leuven, priority 2020, dated 2025):

target: mouse TRPM3α2 (mTRPM3) ion channel (Mus musculus (Mouse), UniProt J9SQF3); test: TRPM3 ion channel driven Ca2+ uptake, Fluo-4 AM assay, mTRPM3alpha2 overexpressing flip-in HEK293 cells stimulated with pregnenolone sulfate; format: cell-based; conditions: PS 50 μM, cpds 200-299
Procedure, shortened: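 Read-out is Ca2+ influx via Fluo-4 AM fluorescence at 485/535 nm, taken right after seeding ~2000 cells/well onto compound with 50 μM PS. Inhibition computed from RFU between vehicle-stimulated and positive-control-inhibitor wells; cells were mTRPM3α2-overexpressing flip-in HEK293.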

Sequence of mouse TRPM3α2 (mTRPM3) ion channel (J9SQF3 other isoform, or with tags, fused parts or gaps): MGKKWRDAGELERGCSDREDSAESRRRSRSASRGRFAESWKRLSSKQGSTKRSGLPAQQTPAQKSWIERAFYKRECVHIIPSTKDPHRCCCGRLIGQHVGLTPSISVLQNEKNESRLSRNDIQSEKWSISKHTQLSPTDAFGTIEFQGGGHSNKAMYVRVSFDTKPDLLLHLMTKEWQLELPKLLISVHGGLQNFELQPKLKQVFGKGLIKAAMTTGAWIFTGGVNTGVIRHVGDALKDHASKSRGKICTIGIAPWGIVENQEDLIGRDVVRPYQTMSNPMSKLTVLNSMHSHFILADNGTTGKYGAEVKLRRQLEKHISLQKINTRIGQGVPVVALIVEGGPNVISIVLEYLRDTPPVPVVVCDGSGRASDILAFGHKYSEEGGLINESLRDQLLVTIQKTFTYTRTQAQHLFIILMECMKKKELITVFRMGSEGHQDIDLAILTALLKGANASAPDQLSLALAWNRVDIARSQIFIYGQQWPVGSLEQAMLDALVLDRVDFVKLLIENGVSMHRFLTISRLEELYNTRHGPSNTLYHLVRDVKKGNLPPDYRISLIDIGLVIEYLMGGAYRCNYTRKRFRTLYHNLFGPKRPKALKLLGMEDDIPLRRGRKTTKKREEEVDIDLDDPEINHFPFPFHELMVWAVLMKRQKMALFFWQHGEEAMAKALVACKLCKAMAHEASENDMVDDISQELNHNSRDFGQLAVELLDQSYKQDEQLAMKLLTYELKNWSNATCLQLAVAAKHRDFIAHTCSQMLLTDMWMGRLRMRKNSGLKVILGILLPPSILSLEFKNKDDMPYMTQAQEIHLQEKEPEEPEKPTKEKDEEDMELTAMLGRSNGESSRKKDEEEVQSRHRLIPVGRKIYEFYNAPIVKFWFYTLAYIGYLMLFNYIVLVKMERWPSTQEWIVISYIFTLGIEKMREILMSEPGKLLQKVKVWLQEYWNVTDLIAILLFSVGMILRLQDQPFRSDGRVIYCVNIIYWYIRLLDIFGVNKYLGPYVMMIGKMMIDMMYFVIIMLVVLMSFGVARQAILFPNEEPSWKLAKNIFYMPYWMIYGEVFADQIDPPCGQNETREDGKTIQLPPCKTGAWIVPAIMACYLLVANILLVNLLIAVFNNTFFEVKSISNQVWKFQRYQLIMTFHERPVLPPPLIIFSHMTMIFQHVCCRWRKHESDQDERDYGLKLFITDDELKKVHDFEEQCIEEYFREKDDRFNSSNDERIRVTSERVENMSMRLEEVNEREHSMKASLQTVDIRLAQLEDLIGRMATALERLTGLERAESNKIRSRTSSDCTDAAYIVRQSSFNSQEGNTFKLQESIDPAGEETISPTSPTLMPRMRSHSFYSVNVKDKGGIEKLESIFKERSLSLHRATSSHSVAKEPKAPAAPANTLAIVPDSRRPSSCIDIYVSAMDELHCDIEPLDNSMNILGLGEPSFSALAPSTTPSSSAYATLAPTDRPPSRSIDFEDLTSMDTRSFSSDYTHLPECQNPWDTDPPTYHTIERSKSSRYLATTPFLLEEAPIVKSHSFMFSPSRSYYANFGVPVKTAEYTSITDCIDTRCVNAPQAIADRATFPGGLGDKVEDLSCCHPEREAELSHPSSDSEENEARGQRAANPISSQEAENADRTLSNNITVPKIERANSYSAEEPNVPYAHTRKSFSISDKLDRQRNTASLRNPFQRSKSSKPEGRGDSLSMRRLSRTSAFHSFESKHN

SMILES | IC50
Cc1oc2ccc(OCc3nccn3C)cc2c1C(=O)NC1(CO)CCOCC1 [compound 204, N-(4-(hydroxymethyl)tetrahydro-2H-pyran-4-yl)-2-methyl-5-((1-methyl-1H-imidazol-2-yl) -methoxy)benzofuran-3-carboxamide] | < 1 µM
CCOc1ncccc1COc1ccc2oc(C)c(C(=O)NC3(CO)CCOCC3)c2c1 [compound 206, 5-((2-ethoxypyridin-3-yl)methoxy)-N-(4-(hydroxymethyl)tetrahydro-2H-pyran-4-yl)-2-methyl-benzofuran-3-carboxamide] | < 1 µM
Cc1ncsc1COc1ccc2oc(C)c(C(=O)N[C@@H](CS(C)(=O)=O)C(N)=O)c2c1 [compound 272, (R)-N-(1-amino-3-(methylsulfonyl)-1-oxopropan-2-yl)-2-methyl-5-((4-methylthiazol-5-yl)methoxy)benzofuran-3-carboxamide] | < 1 µM
Cc1ncsc1COc1ccc2oc(C)c(C(=O)N[C@H](CO)CS(C)(=O)=O)c2c1 [compound 275] | < 1 µM
CNC(=O)[C@@H](CO)NC(=O)c1c(C)oc2ccc(OCc3scnc3C)cc12 [compound 276, (R)-N-(3-hydroxy-1-(methylamino)-1-oxopropan-2-yl)-2-methyl-5-((4-methylthiazol-5-yl)methoxy)benzofuran-3-carboxamide] | < 1 µM
Cc1ncc(COc2ccc3oc(C)c(C(=O)N[C@@H](CO)C(=O)N(C)C)c3c2)s1 [compound 278, (S)-N-(1-(dimethylamino)-3-hydroxy-1-oxopropan-2-yl)-2-methyl-5-((2-methylthiazol-5-yl)methoxy)benzofuran-3-carboxamide] | < 1 µM
Cc1oc2ccc(OCc3cnc(C(F)(F)F)s3)cc2c1C(=O)N[C@@H](CO)C(N)=O [compound 281, (S)-N-(1-amino-3-hydroxy-1-oxopropan-2-yl)-2-methyl-5-((2-(trifluoromethyl)thiazol-5-yl)methoxy)benzofuran-3-carboxamide] | < 1 µM
Cc1ncccc1COc1ccc2oc(C)c(C(=O)N[C@@H](CO)C(N)=O)c2c1 [compound 284, (S)-N-(1-amino-3-hydroxy-1-oxopropan-2-yl)-2-methyl-5-((2-methylpyridin-3-yl)methoxy)benzofuran-3-carboxamide] | < 1 µM
Cc1nc(COc2ccc3oc(C)c(C(=O)N[C@@H](CO)C(N)=O)c3c2)cs1 [compound 285, (S)-N-(1-amino-3-hydroxy-1-oxopropan-2-yl)-2-methyl-5-((2-methylthiazol-4-yl)methoxy)benzofuran-3-carboxamide] | < 1 µM
Cc1oc2ccc(OCc3c[nH]nc3C(F)(F)F)cc2c1C(=O)N[C@@H](CO)C(N)=O [compound 286, (S)-N-(1-amino-3-hydroxy-1-oxopropan-2-yl)-2-methyl-5-((3-(trifluoromethyl)-1H-pyrazol-4-yl)methoxy)benzofuran-3-carboxamide] | < 1 µM
Cc1ccncc1COc1ccc2oc(C)c(C(=O)N[C@@H](CO)C(N)=O)c2c1 [compound 287] | < 1 µM
Cc1oc2ccc(OCc3cccnn3)cc2c1C(=O)N[C@@H](CO)C(N)=O [compound 293, (S)-N-(1-amino-3-hydroxy-1-oxopropan-2-yl)-2-methyl-5-(pyridazin-3-ylmethoxy)benzofuran-3-carboxamide] | < 1 µM

The next lines start with the values.

IC50 | SMILES
< 1 µM | Cc1oc2ccc(OCc3cccnc3C(F)(F)F)cc2c1C(=O)NC1(CO)CC1 [compound 200, N-(1-(hydroxymethyl)cyclopropyl)-2-methyl-5-((2-(trifluoromethyl)pyridin-3-yl)methoxy) -benzofuran-3-carboxamide]
< 1 µM | Cc1ncsc1COc1ccc2oc(C)c(C(N)=O)c2c1 [compound 232, 2-methyl-5-((4-methylthiazol-5-yl)methoxy)benzofuran-3-carboxamide]
< 1 µM | Cc1ncsc1COc1ccc2oc(C)c(C(=O)N[C@H](C)C(N)=O)c2c1 [compound 271, (R)-N-(1-amino-1-oxopropan-2-yl)-2-methyl-5-((4-methylthiazol-5-yl)methoxy)benzofuran-3-carboxamide]
< 1 µM | Cc1ncsc1COc1ccc2oc(C)c(C(=O)N[C@@H](C(N)=O)C(C)C)c2c1 [compound 273, (R)-N-(1-amino-3-methyl-1-oxobutan-2-yl)-2-methyl-5-((4-methylthiazol-5-yl)methoxy)benzofuran-3-carboxamide]
< 1 µM | Cc1ncc(COc2ccc3oc(C)c(C(=O)N[C@H](CO)CS(C)(=O)=O)c3c2)s1 [compound 274, (R)-N-(1-hydroxy-3-(methylsulfonyl)propan-2-yl)-2-methyl-5-((2-methylthiazol-5-yl)methoxy)benzofuran-3-carboxamide]
< 1 µM | Cc1ncsc1COc1ccc2oc(C)c(C(=O)N[C@@H](C)C(N)=O)c2c1 [compound 279, (S)-N-(1-amino-1-oxopropan-2-yl)-2-methyl-5-((4-methylthiazol-5-yl)methoxy)benzofuran-3-carboxamide]
< 1 µM | Cc1oc2ccc(OCc3cccnc3C(F)(F)F)cc2c1C(=O)N[C@@H](CO)C(N)=O [compound 280, (S)-N-(1-amino-3-hydroxy-1-oxopropan-2-yl)-2-methyl-5-((2-(trifluoromethyl)pyridin-3-yl)methoxy)benzofuran-3-carboxamide]
< 1 µM | Cc1nc(C(F)(F)F)c(COc2ccc3oc(C)c(C(=O)N[C@@H](CO)C(N)=O)c3c2)s1 [compound 282, (S)-N-(1-amino-3-hydroxy-1-oxopropan-2-yl)-2-methyl-5-((2-methyl-4-(trifluoromethyl)thiazol-5-yl)methoxy)benzofuran-3-carboxamide]
< 1 µM | Cc1ncc(COc2ccc3oc(C)c(C(=O)N[C@@H](CO)C(N)=O)c3c2)o1 [compound 283, (S)-N-(1-amino-3-hydroxy-1-oxopropan-2-yl)-2-methyl-5-((2-methyloxazol-5-yl)methoxy)benzofuran-3-carboxamide]
< 1 µM | Cc1ncsc1COc1ccc2oc(C)c(C(=O)N[C@@H](CO)C(N)=O)c2c1 [compound 288, (S)-N-(1-amino-3-hydroxy-1-oxopropan-2-yl)-2-methyl-5-((4-methylthiazol-5-yl)methoxy)benzofuran-3-carboxamide]
< 1 µM | Cc1cc(COc2ccc3oc(C)c(C(=O)N[C@@H](CO)C(N)=O)c3c2)no1 [compound 289, (S)-N-(1-amino-3-hydroxy-1-oxopropan-2-yl)-2-methyl-5-((5-methylisoxazol-3-yl)methoxy)benzofuran-3-carboxamide]
< 1 µM | Cc1oc2ccc(OCc3ncsc3C)cc2c1C(=O)N[C@@H](CO)C(N)=O [compound 290, (S)-N-(1-amino-3-hydroxy-1-oxopropan-2-yl)-2-methyl-5-((5-methylthiazol-4-yl)methoxy)benzofuran-3-carboxamide]
< 1 µM | Cc1ccc(COc2ccc3oc(C)c(C(=O)N[C@@H](CO)C(N)=O)c3c2)cn1 [compound 291, (S)-N-(1-amino-3-hydroxy-1-oxopropan-2-yl)-2-methyl-5-((6-methylpyridin-3-yl)methoxy)benzofuran-3-carboxamide]
< 1 µM | Cc1oc2ccc(OCC3COC3)cc2c1C(=O)N[C@@H](CO)C(N)=O [compound 292, (S)-N-(1-amino-3-hydroxy-1-oxopropan-2-yl)-2-methyl-5-(oxetan-3-ylmethoxy)benzofuran-3-carboxamide]
